Legend:
Details in all cases: Compound concentration 1000.0 nM
[1] = target: Serine/threonine-protein kinase MRCK gamma (Homo sapiens) (UniProt Q6DT37)
[2] = target: Insulin receptor-related protein (Homo sapiens) (UniProt P14616)
[3] = target: Mitogen-activated protein kinase 4 (Homo sapiens) (UniProt P31152)
[4] = target: Phosphatidylinositol 5-phosphate 4-kinase type-2 gamma (Homo sapiens) (UniProt Q8TBX8)
[5] = target: T1, Serine/threonine-protein kinase Nek9 (Homo sapiens) (UniProt Q8TD19)
T1 sequence (whole entry): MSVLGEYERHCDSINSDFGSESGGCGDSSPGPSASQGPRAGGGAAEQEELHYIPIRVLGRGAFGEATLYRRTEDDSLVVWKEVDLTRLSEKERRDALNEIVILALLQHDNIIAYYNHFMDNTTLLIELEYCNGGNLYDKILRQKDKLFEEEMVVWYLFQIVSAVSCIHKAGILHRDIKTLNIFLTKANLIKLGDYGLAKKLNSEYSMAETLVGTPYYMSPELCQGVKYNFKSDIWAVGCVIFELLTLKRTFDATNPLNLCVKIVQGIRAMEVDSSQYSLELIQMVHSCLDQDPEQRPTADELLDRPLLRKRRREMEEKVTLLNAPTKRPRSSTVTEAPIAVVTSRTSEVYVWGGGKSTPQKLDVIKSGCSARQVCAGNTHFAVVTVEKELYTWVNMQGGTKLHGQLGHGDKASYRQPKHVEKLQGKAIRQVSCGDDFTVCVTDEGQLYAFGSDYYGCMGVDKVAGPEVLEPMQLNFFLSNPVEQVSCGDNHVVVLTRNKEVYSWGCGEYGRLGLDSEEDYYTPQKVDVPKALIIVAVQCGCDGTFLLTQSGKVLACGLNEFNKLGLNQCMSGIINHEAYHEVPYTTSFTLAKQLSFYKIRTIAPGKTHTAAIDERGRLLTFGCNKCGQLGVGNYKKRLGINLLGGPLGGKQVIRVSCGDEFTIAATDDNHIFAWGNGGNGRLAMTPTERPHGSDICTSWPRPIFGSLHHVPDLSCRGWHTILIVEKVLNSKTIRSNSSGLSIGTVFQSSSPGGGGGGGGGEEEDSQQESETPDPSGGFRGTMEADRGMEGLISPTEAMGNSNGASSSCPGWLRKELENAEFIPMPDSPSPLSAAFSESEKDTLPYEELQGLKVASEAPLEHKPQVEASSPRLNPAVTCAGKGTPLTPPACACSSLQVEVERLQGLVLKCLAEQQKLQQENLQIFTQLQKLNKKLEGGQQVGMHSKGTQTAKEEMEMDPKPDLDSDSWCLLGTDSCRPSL

[6] = target: T2, Myotonin-protein kinase (Homo sapiens) (UniProt Q09013)
T2 sequence (whole entry): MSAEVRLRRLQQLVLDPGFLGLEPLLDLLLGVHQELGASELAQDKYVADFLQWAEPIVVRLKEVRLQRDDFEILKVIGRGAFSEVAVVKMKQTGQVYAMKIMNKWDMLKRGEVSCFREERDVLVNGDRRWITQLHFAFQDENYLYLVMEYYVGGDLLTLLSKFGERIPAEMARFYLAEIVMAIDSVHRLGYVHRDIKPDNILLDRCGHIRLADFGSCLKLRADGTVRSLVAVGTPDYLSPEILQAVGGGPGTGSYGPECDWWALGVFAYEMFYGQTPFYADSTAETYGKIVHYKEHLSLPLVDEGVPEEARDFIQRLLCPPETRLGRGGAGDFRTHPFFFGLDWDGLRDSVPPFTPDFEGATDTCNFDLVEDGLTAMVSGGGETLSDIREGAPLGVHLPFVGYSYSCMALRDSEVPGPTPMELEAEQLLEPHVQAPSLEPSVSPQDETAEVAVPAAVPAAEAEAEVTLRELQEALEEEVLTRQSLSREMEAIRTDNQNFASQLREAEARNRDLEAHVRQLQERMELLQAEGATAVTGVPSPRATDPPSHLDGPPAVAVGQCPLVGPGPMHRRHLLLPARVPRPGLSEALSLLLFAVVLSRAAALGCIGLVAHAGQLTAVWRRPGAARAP

[7] = test system: Epidermal growth factor receptor (Homo sapiens), P00533 [UNDEFINED MUTATION]
[8] = target: T3, Mitogen-activated protein kinase kinase kinase 2 (Homo sapiens) (UniProt Q9Y2U5)
T3 sequence (whole entry): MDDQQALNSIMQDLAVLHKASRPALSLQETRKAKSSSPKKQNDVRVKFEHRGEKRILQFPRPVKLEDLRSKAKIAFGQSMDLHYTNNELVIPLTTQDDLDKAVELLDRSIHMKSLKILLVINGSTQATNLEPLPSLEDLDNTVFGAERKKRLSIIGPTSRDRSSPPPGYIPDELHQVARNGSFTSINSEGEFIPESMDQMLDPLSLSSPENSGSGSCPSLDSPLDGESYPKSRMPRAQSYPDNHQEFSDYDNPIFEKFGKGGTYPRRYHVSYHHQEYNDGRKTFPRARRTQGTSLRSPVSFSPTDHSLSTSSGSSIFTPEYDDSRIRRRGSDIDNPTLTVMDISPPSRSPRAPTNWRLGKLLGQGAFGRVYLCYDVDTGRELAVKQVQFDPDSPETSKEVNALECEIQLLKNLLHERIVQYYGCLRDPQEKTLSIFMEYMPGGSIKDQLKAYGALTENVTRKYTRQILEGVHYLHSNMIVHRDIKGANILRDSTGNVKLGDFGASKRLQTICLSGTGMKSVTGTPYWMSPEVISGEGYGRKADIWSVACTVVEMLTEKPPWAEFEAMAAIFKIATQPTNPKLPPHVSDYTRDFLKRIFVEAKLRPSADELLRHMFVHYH

[9] = target: Leucine-rich repeat serine/threonine-protein kinase 2 (Homo sapiens) (UniProt Q5S007)
[10] = test system: Tyrosine-protein kinase ABL1 (Homo sapiens), P00519 [F317I]
[11] = target: Serine/threonine-protein kinase pim-3 (Homo sapiens) (UniProt Q86V86)
[12] = target: Serine/threonine-protein kinase pim-2 (Homo sapiens) (UniProt Q9P1W9)

Measured: residual activity

Sequence of Serine/threonine-protein kinase MRCK gamma (Homo sapiens) (Q6DT37 whole entry): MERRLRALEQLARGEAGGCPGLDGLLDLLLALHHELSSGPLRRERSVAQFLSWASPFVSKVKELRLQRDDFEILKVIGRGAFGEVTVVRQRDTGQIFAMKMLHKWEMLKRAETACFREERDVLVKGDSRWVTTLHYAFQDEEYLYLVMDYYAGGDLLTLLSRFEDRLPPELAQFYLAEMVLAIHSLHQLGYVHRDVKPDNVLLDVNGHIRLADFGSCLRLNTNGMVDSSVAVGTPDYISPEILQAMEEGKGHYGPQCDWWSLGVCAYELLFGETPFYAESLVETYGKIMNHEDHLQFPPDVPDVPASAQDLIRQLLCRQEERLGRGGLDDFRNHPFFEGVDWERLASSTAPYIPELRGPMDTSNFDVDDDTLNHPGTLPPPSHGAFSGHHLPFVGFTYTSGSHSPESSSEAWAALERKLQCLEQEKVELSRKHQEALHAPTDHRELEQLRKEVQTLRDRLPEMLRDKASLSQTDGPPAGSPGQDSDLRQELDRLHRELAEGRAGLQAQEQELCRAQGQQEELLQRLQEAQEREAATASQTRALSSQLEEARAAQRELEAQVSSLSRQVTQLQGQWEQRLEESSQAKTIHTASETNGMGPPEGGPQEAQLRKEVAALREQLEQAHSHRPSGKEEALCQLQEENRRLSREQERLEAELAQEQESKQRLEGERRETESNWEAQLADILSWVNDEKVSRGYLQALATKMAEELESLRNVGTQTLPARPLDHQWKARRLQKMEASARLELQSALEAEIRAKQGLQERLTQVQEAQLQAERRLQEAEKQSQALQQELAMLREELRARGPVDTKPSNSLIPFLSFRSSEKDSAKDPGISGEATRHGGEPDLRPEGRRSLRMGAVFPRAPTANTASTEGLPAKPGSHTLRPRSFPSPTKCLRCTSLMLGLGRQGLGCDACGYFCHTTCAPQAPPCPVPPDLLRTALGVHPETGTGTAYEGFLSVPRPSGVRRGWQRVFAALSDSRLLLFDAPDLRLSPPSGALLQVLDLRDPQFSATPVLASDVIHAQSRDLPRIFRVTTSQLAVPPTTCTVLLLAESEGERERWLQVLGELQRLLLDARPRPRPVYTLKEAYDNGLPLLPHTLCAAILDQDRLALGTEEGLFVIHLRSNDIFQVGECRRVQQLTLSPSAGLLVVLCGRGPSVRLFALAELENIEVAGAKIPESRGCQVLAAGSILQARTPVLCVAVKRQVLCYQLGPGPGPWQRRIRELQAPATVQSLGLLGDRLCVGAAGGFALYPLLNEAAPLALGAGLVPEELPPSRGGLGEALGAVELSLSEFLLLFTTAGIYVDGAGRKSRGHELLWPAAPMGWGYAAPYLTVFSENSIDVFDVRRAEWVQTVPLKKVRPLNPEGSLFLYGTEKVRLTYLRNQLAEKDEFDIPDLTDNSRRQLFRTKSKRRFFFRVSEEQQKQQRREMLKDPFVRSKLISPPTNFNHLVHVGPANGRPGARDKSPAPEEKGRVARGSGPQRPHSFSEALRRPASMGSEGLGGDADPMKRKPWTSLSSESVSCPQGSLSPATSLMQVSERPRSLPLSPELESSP
Sequence of Tyrosine-protein kinase ABL1 (Homo sapiens), P00519 [F317I] (P00519 whole entry F317I): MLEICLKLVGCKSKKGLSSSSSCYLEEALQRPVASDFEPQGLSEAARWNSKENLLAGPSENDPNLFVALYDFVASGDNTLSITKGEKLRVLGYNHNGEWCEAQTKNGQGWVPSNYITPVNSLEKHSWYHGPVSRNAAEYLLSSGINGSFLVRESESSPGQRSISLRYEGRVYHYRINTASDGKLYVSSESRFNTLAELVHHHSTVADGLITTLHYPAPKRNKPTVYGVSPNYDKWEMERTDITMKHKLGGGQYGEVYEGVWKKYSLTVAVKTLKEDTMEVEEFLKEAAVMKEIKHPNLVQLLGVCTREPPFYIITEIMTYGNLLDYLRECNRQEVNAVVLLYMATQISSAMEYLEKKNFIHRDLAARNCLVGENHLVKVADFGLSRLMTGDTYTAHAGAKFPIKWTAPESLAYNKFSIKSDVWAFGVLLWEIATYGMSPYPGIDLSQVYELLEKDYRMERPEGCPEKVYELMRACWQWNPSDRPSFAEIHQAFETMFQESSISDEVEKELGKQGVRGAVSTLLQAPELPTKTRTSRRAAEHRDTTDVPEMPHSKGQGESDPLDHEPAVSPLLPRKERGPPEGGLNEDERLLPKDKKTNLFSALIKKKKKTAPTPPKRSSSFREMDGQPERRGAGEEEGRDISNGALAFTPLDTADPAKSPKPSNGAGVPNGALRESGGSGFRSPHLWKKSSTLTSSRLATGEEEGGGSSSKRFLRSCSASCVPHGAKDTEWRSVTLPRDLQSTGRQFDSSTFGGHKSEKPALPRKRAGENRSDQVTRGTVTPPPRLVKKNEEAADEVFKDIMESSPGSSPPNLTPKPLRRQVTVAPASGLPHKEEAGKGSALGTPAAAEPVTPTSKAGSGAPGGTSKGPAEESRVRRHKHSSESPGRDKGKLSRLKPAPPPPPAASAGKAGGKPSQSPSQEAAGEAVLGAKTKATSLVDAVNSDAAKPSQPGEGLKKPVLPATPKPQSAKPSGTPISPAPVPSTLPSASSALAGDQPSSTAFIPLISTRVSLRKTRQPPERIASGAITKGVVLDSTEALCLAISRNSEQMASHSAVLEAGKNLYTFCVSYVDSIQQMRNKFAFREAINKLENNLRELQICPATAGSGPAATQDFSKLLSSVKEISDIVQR
Sequence of Mitogen-activated protein kinase 4 (Homo sapiens) (P31152 whole entry): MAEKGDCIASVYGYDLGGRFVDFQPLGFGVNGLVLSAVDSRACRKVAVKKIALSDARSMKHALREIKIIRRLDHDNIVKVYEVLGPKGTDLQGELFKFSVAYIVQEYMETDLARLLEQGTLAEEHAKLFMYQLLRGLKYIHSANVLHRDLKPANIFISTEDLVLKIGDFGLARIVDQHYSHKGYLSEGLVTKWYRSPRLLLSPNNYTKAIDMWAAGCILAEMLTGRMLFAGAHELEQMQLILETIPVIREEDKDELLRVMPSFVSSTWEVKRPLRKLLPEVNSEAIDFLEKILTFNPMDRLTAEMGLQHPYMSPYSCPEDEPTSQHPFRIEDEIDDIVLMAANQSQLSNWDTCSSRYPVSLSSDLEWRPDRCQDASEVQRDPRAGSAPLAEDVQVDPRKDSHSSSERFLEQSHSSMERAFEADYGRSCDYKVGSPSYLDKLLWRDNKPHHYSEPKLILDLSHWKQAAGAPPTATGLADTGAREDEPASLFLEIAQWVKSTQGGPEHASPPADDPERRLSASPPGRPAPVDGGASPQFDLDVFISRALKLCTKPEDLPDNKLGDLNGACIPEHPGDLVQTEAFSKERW
Sequence of Phosphatidylinositol 5-phosphate 4-kinase type-2 gamma (Homo sapiens) (Q8TBX8 whole entry): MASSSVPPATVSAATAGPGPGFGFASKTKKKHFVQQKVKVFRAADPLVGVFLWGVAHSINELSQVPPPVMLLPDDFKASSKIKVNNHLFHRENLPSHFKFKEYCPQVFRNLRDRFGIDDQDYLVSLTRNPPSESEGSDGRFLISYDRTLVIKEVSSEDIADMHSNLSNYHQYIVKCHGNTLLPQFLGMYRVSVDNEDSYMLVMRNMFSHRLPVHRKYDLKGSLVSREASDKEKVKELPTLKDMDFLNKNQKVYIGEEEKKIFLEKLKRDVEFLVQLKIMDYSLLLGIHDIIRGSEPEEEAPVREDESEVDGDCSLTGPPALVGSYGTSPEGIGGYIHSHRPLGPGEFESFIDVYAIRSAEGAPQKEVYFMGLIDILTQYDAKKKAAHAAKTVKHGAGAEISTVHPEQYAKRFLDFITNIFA
Sequence of Serine/threonine-protein kinase pim-2 (Homo sapiens) (Q9P1W9 whole entry, looked up): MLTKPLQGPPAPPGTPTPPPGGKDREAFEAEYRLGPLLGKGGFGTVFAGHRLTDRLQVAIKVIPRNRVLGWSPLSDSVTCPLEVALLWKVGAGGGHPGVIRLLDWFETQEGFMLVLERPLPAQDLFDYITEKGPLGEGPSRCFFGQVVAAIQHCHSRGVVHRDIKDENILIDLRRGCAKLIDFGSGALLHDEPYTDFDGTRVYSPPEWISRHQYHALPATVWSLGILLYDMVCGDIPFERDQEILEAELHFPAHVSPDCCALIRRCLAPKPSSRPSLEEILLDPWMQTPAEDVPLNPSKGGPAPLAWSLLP

CN(C)C(=O)Cn1cc(-c2nc(C3(c4ccc(-c5cnc(N)nc5)cc4)CC3)no2)cn1 [BI 0153]
inactive: [1] 82% | [2] 100% | [3] 100% | [4] 100% | [5] 100% | [6] 82% | [7] 79% | [8] 93% | [9] 100% | [10] 76% | [11] 100% | [12] 100%

CN(C)C(=O)Cn1cc(-c2nc([C@@](C)(c3ccc(-c4cnc(N)nc4)cc3)C3CC3)no2)cn1 [BI 665915]
inactive: [1] 87% | [2] 99% | [3] 88% | [4] 100% | [5] 95% | [6] 100% | [7] 75% | [8] 94% | [9] 74% | [10] 96% | [11] 96% | [12] 100%

Reference: ChEMBL document CHEMBL4507276 (2021)
